Reference: patent publication US10077436B2, “Beta-glucosidase enzymes for increased biomass saccharification” (Edeniq, Inc., priority 2013, dated 2018)

Legend:
Type in all cases: biochemical
[1] = test system: A-BG (Accellerase® BG from DuPont), commercial beta-glucosidase; experiment: BG kinetics, pNPG hydrolysis assay with glucose as competitive inhibitor, A-BG; conditions: pNPG substrate, pH 5.0, 50° C.
Method: (§1) The kinetic properties of beta glucosidase are important for cellulosic hydrolysis, since in commercial situations a wide range of substrate concentrations and different product inhibition conditions will be encountered. In this example, a Michaelis-Menten kinetics model was used to describe BG kinetics.
(§2) One pNPG unit is defined as the amount of enzyme that produces 1 μmol of pNP per min. Briefly, to determine BG activity, 25 μL of diluted enzyme in 200 mM sodium acetate buffer (pH 5.0) was mixed with 25 μL of the same buffer and 25 μL of RO water (or glucose solution for the kinetic study) and the mixture was preincubated at 50° C. for 5 min. The reaction was initiated by adding 25 μL of 10 mM pNPG in 200 mM sodium acetate buffer (pH 5.0) and the mixture was incubated at 50° C. for 10 min. The reaction was then terminated by adding 100 μL of 0.25 M sodium carbonate, and the amount of pNP produced was determined by measuring absorbance at 405 nm using a predetermined calibration curve.
The range of substrate concentration was chosen to show detectable activity at the lowest concentration and saturation stage at high substrate concentration.
(§3) To determine the kinetic properties, a competitive inhibition mechanism was hypothesized as proposed in the literature (Chauve et al, 2010; Krogh et al, 2010). The Michaelis-Menten equation with the competitive inhibition term can be expressed in Equation (1), where [S] is the substrate concentration (mM), [I] is the inhibitor concentration (mM), V is the rate of product formation (mM/min), Vmax is the maximal rate of product formation (mM/min), Km is the Michaelis-Menten constant and Ki is the inhibition constant. The turnover number, Kcat, can be calculated by Equation (2), where [Et] is the total amount of enzyme.
(§4) Conventionally, linearization methods can be used to determine the kinetic parameters based on Equation (1). Three common linear plots used are Lineweaver-Burke, Eadie-Hofstee and Hanes plots (Rogers and Gibon, 2009). However, these linearized versions of the Michaelis-Menten equation often produce substantial errors in parameter estimation. […] All of the activity data at different substrate levels and different inhibitor levels were fit simultaneously according to the full nonlinear equation for competitive enzyme inhibition as expressed in Equation (1). Thus, Vmax, Km and Ki can be determined simultaneously from this fitting process, and Km/Ki can then be calculated. Kcat can be obtained by Equation (2) and Kcat/Km can be calculated accordingly.
(§5) The above experimental data were fit in the competitive inhibition model as expressed in Equation (1) by simultaneous nonlinear regression.

[2] = test system: S-BG (Novozymes SP188 from Sigma), commercial beta-glucosidase; experiment: BG kinetics, pNPG hydrolysis assay with glucose as competitive inhibitor, S-BG; conditions: pNPG substrate, pH 5.0, 50° C.
Source text: (§6) The kinetic properties of beta glucosidase are important for cellulosic hydrolysis, since in commercial situations a wide range of substrate concentrations and different product inhibition conditions will be encountered. In this example, a Michaelis-Menten kinetics model was used to describe BG kinetics. To determine these kinetic properties, BG activity assays using standard substrates pNPG and cellobiose were employed. yEdQ745-BG (wild type) and yEdQ885-BG (improved), were compared with two commercial BGs, A-BG (Accellerase®) BG from Dupont) and S-BG (Novozymes SP188 from Sigma).
as §2, with “BG activity assay using pNPG is one of the two commonly used standard assays to measure BG activity, which utilizes hydrolysis of p-nitrophenyl-β-D-glucopyranoside (pNPG) by BG into a yellow colored product, p-nitrophenol (pNP), that has a strong absorbance at 405 nm. One” for “One”
The range of substrate concentration was chosen to show detectable activity at the lowest concentration and saturation stage at high substrate concentration. The upper limit of inhibitor (glucose) level was chosen to get as close as possible to the real conditions during saccharification (˜4% w/v glucose) and have a detectable residual activity.
as §3, §4
The above experimental data were fit in the competitive inhibition model as expressed in Equation (1) by simultaneous nonlinear regression. The order of maximum velocity (Vmax) is A-BG>yEdQ885-BG>S-BG≈yEdQ745-BG. […] Nevertheless, the in-house BGs have much higher dissociation constant for inhibitor (Ki), indicating higher tolerance to product inhibition. Consistent with Vmax, the order of turnover number (Kcat) is A-BG>yEdQ885-BG>S-BG≈yEdQ745-BG. With much lower Km and much higher Kcat, A-BG has a considerably higher catalytic efficiency (Kcat/Km) than the other enzymes. The catalytic efficiency of S-BG and yEdQ885-BG is quite close, which is higher than that of yEdQ745-BG. […]

[3] = test system: A-BG (Accellerase® BG from DuPont), commercial beta-glucosidase; experiment: BG kinetics, cellobiose hydrolysis assay (HPLC) with glucose as competitive inhibitor, A-BG; conditions: cellobiose substrate, pH 4.8, 50° C.
Source text: as §1
(§7) BG activity assay using cellobiose is the other standard assay to measure BG or cellobiase activity, which utilizes hydrolysis of cellobiose by cellobiase into two molecules of glucose, the last step of enzymatic hydrolysis of cellulose. One cellobiase unit (commonly termed as CBU) is defined as the amount of enzyme that converts […] of cellobiose or produces 2 μmol of glucose per min. Briefly, to determine BG activity, 25 μL of diluted enzyme in 50 mM citrate buffer (pH 4.8) equilibrated to 50° C. was mixed with 25 μL cellobiose (or cellobiose/glucose mixture for the kinetic study) to start the reaction. The mixture was incubated at 50° C. for 10 min, and the reaction was terminated by incubating the mixture at 99° C. for 5 min. Different methods are available to measure the glucose produced in the assays. For the kinetic study, HPLC was used.
To determine kinetic properties using cellobiose substrate, duplicate assays with cellobiose concentrations ranging from 0.47 to 15 mM and glucose concentrations of 0, 0.9, 4.5, 6.75, and 8.1 (for A-BG) or 9 (for all the other three BGs) g/L were performed. As for pNPG substrate, the range of cellobiose substrate concentration was chosen to show detectable activity at the lowest substrate concentration and saturation stage at high substrate concentration. […] Moreover, theoretically there are two ways to measure BG activity by HPLC when cellobiose is used as the substrate: tracking consumption of cellobiose or tracking production of glucose. […] In Table 3, A % is defined as follows and is an indicator of measurement sensitivity, since the difference of substrate or product concentrations before and after reaction was used to determine BG activity. Δ%=(start conc. of cellobiose−end conc. of cellobiose)/start conc. of cellobiose×100% (3) Δ%=(end conc. of glucose−start conc. of glucose)/start conc. of glucose×100% (4)
A similar simultaneous nonlinear regression method based on the competitive inhibition equation expressed in Equation (1) was used to determine kinetic parameters of BG towards cellobiose.
The specific activity used here was determined by the initial velocity approach that is required by implementing Michaelis-Menten model (Copeland, 2000). The specific activity was determined by measuring consumption of cellobiose in the first 10 min of reaction and was expressed as μmol min^−1 mg^−1, where mg^−1 means per mg of total protein. The relative activity was determined based on the maximum activity obtained in the absence of initial glucose inhibition.
as §5

[4] = test system: S-BG (Novozymes SP188 from Sigma), commercial beta-glucosidase; experiment: BG kinetics, cellobiose hydrolysis assay (HPLC) with glucose as competitive inhibitor, S-BG; conditions: cellobiose substrate, pH 4.8, 50° C.
Source text: as §6, §7
To determine kinetic properties using cellobiose substrate, duplicate assays with cellobiose concentrations ranging from 0.47 to 15 mM and glucose concentrations of 0, 0.9, 4.5, 6.75, and 8.1 (for A-BG) or 9 (for all the other three BGs) g/L were performed. As for pNPG substrate, the range of cellobiose substrate concentration was chosen to show detectable activity at the lowest substrate concentration and saturation stage at high substrate concentration. However, in contrast to the pNPG substrate, when there was still some activity left at glucose concentration up to 36 g/L, most of the BG activity was lost at an inhibitor level of 9 g/L when cellobiose substrate was used. […] It should also be noted that colorimetric glucose assay cannot provide activity results for inhibitory glucose levels above 0.9 g/L after several trials. Therefore, HPLC measurements were used for kinetic studies using cellobiose substrate. It should be pointed out that the HPLC method may not be sensitive enough either to capture BG activity under more severe glucose inhibition conditions than 9 g/L of glucose. Moreover, theoretically there are two ways to measure BG activity by HPLC when cellobiose is used as the substrate: tracking consumption of cellobiose or tracking production of glucose. However, as shown by the example of one set of results from S-BG in Table 3, tracking glucose is problematic due to measurement sensitivity. In Table 3, A % is defined as follows and is an indicator of measurement sensitivity, since the difference of substrate or product concentrations before and after reaction was used to determine BG activity. Δ%=(start conc. of cellobiose−end conc. of cellobiose)/start conc. of cellobiose×100% (3) Δ%=(end conc. of glucose−start conc. of glucose)/start conc. of glucose×100% (4)
With increasing inhibitor (glucose) level, Δ% is decreasing. For the case of tracking glucose, Δ% was too small to be reliable when 4.5 g/L of glucose was added at the beginning. […] Thus, the approach of tracking cellobiose was chosen due to its higher detection sensitivity. In the substrate range used to determine kinetic parameters (0.47 to 30 mM for A-BG and 0.47 to 15 mM for the other three BGs), the detection sensitivity is reasonable.
A similar simultaneous nonlinear regression method based on the competitive inhibition equation expressed in Equation (1) was used to determine kinetic parameters of BG towards cellobiose. […]

Compound	Kcat [1]	Kcat/Km [1]	Km [1]	Vmax [1]	Kcat [2]	Kcat/Km [2]	Km [2]	Vmax [2]	Kcat [3]	Kcat/Km [3]	Km [3]	Vmax [3]	Kcat [4]	Kcat/Km [4]	Km [4]	Vmax [4]
O=[N+]([O-])c1ccc(O[C@@H]2O[C@H](CO)[C@@H](O)[C@H](O)[C@H]2O)cc1 [pNPG, p-nitrophenyl-β-D-glucopyranoside]	2695.39 min⁻¹	27226.18 min⁻¹ mM⁻¹	99 ± 12 µM	34.38 ± 0.67 U/mg	504.00 min⁻¹	1200.00 min⁻¹ mM⁻¹	420 ± 60 µM	4.20 ± 0.14 U/mg	–	–	–	–	–	–	–	–
OC[C@H]1O[C@@H](O[C@H]2[C@H](O)[C@@H](O)C(O)O[C@@H]2CO)[C@H](O)[C@@H](O)[C@@H]1O (stereo partly shown) [cellobiose]	–	–	–	–	–	–	–	–	4068.18 min⁻¹	620.15 min⁻¹ mM⁻¹	6.56 ± 0.89 mM	51.89 ± 2.53 units/mg	932.40 min⁻¹	586.42 min⁻¹ mM⁻¹	1.59 ± 0.41 mM	7.77 ± 0.56 units/mg
